From PubChem BioAssay (NCI)
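Step 1: Grow cells in 96-well plates. Step 2: Expose to compound for 48 hours at 5 concentrations. Step 3: Interpolate endpoints linearly; if unreached, use highest concentration. Abbreviation: GI50, concentration required for 50% inhibition of growth. TGI: concentration producing complete growth inhibition.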

Experiments:
Experiment in all cases: inhibition of tumour cell growth, NCI panel, 48 h
SF-295 CNS = tested on: SF-295 CNS
IGROV1 ovarian = tested on: IGROV1 ovarian
UO-31 renal = tested on: UO-31 renal
A498 renal = tested on: A498 renal
SW-620 colon = tested on: SW-620 colon
OVCAR-3 ovarian = tested on: OVCAR-3 ovarian
PC-3 prostate = tested on: PC-3 prostate
OVCAR-4 ovarian = tested on: OVCAR-4 ovarian
HCT-15 colon = tested on: HCT-15 colon

SMILES	TGI (SF-295 CNS)	TGI (IGROV1 ovarian)	TGI (UO-31 renal)	TGI (A498 renal)	TGI (SW-620 colon)	TGI (OVCAR-3 ovarian)	TGI (PC-3 prostate)	TGI (OVCAR-4 ovarian)	TGI (HCT-15 colon)	GI50 (OVCAR-3 ovarian)
COc1ccc([C@@]23OC[C@@H]4[C@@H](OC[C@@H]42)c2cc(OC)c(OC)cc23)cc1OC	> 100 µM	> 100 µM	> 100 µM	> 100 µM	> 100 µM	> 100 µM	> 100 µM	> 100 µM	> 100 µM	–
CN(C)C(=O)Oc1ccc(-c2cn3cc(NC(=O)c4ccccc4)ccc3n2)cc1	> 100 µM	> 100 µM	> 100 µM	> 100 µM	> 100 µM	> 100 µM	> 100 µM	> 100 µM	> 100 µM	–
O=c1[nH]n(Cc2ccccn2)c2ccc([N+](=O)[O-])cc12	–	> 100 µM	> 100 µM	> 100 µM	> 100 µM	> 100 µM	> 100 µM	> 100 µM	> 100 µM	–
COc1ccc(C2SC(C)C(=O)N2c2nc(-c3nc(-c4ccc(Cl)cc4)cs3)cs2)cc1 (stereo unspecified)	> 100 µM	> 100 µM	> 100 µM	–	> 100 µM	> 100 µM	> 100 µM	> 100 µM	> 100 µM	–
COc1cc2c(cc1OCc1ccccc1)NC(=S)[C@@H]1CCCN1C2=S	> 100 µM	> 100 µM	> 100 µM	> 100 µM	> 100 µM	> 100 µM	> 100 µM	> 100 µM	> 100 µM	–
N#CCCN(CCN(C(=O)Nc1ccccc1)c1ccccc1)C(=O)Nc1ccccc1	> 100 µM	> 100 µM	> 100 µM	> 100 µM	> 100 µM	> 100 µM	> 100 µM	> 100 µM	> 100 µM	–
C=CC[C@@H]1C(=O)[C@@]2(O[Si](C(C)C)(C(C)C)C(C)C)CC[C@@H]1C[C@H]2NC(=O)OCC(Cl)(Cl)Cl	85.8 µM	–	> 100 µM	> 100 µM	> 100 µM	> 100 µM	> 100 µM	> 100 µM	> 100 µM	–
COc1cc2c(cc1O)[C@@H]1Cc3c(cc(OC)c(OC)c3Oc3cc4c(cc3OC)CCN(C)[C@@H]4Cc3ccc(O)cc3)[C@H](C2)N1C	> 100 µM	> 100 µM	> 100 µM	80.4 µM	> 100 µM	> 100 µM	> 100 µM	> 100 µM	> 100 µM	–
O=C(NC(Nc1ccc(F)c(Cl)c1)(C(F)(F)F)C(F)(F)F)OCc1ccccc1	91.7 µM	> 100 µM	54.1 µM	> 100 µM	> 100 µM	34.8 µM	> 100 µM	–	94.5 µM	–
O=C(c1ccccc1)c1sc2c(=O)c(C(=O)c3ccccc3)c(C(=O)c3ccccc3)sc2c(=O)c1C(=O)c1ccccc1	> 100 µM	69.2 µM	22.6 µM	> 100 µM	> 100 µM	> 100 µM	> 100 µM	> 100 µM	> 100 µM	–
Cc1ccc(S(=O)(=O)N2CCCC2C(=O)O[C@H]2CC[C@H]3CC=C[C@H]32)cc1 (stereo partly specified)	> 100 µM	> 100 µM	> 100 µM	89 µM	> 100 µM	> 100 µM	> 100 µM	> 100 µM	–	–
COC(=O)[C@@H]1C[C@@H]2c3ccccc3N(S(=O)(=O)c3ccccc3)[C@@H]2N1C(=O)OC	> 100 µM	> 100 µM	> 100 µM	–	> 100 µM	> 100 µM	> 100 µM	> 100 µM	> 100 µM	–
O=C(c1ccc(Br)cc1)n1c2ccc(Br)cc2c2nc3ccccc3nc21	> 100 µM	> 100 µM	> 100 µM	–	> 100 µM	> 100 µM	> 100 µM	> 100 µM	> 100 µM	–
C=C(Cl)C(=C)CCC(Cl)C(C)C (stereo unspecified)	> 100 µM	> 100 µM	> 100 µM	> 100 µM	> 100 µM	> 100 µM	> 100 µM	> 100 µM	–	–
C[C@]12[C@@H]3CC[C@H]1[C@@H](OC(=O)Nc1cc([N+](=O)[O-])cc([N+](=O)[O-])c1)C(=O)N2CC3	> 100 µM	> 100 µM	> 100 µM	> 100 µM	> 100 µM	–	> 100 µM	> 100 µM	> 100 µM	–
Cn1c2c(c3ccccc31)CC(=S)N1CCCC(CC2O)C1 (stereo unspecified)	> 100 µM	–	> 100 µM	> 100 µM	> 100 µM	–	> 100 µM	> 100 µM	> 100 µM	–
Nc1nc(Cl)c2nnn(CC3CCC(CO)C3)c2n1 (stereo unspecified)	> 100 µM	–	> 100 µM	> 100 µM	> 100 µM	> 100 µM	> 100 µM	> 100 µM	> 100 µM	–
O=C(CCN1CCOCC1)Nc1ccc2sc3ccccc3c(=O)c2n1	> 100 µM	> 100 µM	> 100 µM	–	> 100 µM	> 100 µM	> 100 µM	> 100 µM	> 100 µM	–
CC1OC(OC2C(O)COC(OC3C(C)OC(OC4C(OC(=O)[C@]56CCC(C)(C)C[C@@H]5C5=CCC7[C@@]8(C)C[C@H](O)[C@H](OC9OC(CO)C(O)C(OC%10OC(CO)C(O)C(O)C%10O)C9O)[C@@](C)(CO)[C@@H]8CC[C@@]7(C)[C@]5(C)CC6)OCC(O)C4O)C(O)C3O)C2O)C(O)C(O)C1O (stereo partly specified)	28.4 µM	–	16 µM	26 µM	30.4 µM	29.4 µM	23.9 µM	34.4 µM	38.7 µM	–
O=C(O)CCCOc1cc(-c2ccccc2F)nc2cc3c(cc12)OCO3	–	15.8 µM	–	–	> 100 µM	6.74 µM	> 100 µM	> 100 µM	> 100 µM	2.35 µM
CCOC(=O)c1cnc(-n2[nH]c3c(c2=O)CCCC3)[nH]c1=O	> 100 µM	> 100 µM	> 100 µM	> 100 µM	> 100 µM	–	> 100 µM	> 100 µM	> 100 µM	–
COc1ccc2c(c1)CCC1=CC3(CCC12C)SCCS3 (stereo unspecified)	> 10 µM	> 10 µM	–	–	> 10 µM	7.71 µM	> 10 µM	> 10 µM	> 10 µM	–
CCc1c(Cc2cc(C)cc(C)c2)n2c(nc1=O)SCC2CBr (stereo unspecified)	–	> 50 µM	> 50 µM	> 50 µM	> 50 µM	–	> 50 µM	> 50 µM	> 50 µM	–
